From patent publication US9637490B2, “Antifungal 5,6-dihydro-4-[(difluoroethyl)phenyl]-4H-pyrrolo[1,2-α][1,4]benzodiazepine and 4-(difluoroethyl)phenyl-6H-pyrrolo[1,2-α][1,4]benzodiazepine derivatives” (Janssen Pharmaceutica NV, priority 2010, dated 2017)

Legend:
[1] = system: Sporothrix schenkii B62482; experiment: Antifungal activity in vitro (resazurin susceptibility screen), Inf. A; format: cell-based; settings: 27 °C, 4 days, resa time 24 hours; for IC50: Sporothrix, B62482, Sporothrix schenkii B62482; for pIC50 Inf. A: Sporothrix schenkii B62482
Description: (§1) The standard susceptibility screen was performed in 96-well plates (U-bottom, Greiner Bio-One). Serial dilutions (2-fold or 4-fold) of 20 mM compound stock solutions were made in 100% DMSO, followed by an intermediate dilution step in water. These serial dilutions (10 μl) were then spotted onto test-plates that could be stored in the dark at 4° C. for a maximum period of 2 weeks. An adequate broad dose-range was included with 64 μM as the highest in-test concentration. The culture medium RPMI-1640 was supplemented with L-glutamine, 2% glucose and buffered with 3-(N-morpholino)-propanesulfonic acid (MOPS) at pH 7.0±0.1. The different fungal species/isolates (Table 3a) were cryopreserved and 1/1000 diluted in medium just prior to use. A standard inoculum of 200 μl containing 10^3 colony-forming unit (cfu) was then added to each well. A positive control (100% growth=fungal culture without antifungal) and a negative control (0% growth=RPMI-MOPS medium) were included on each plate. Optimal incubation time and temperature were dependent on the fungal species and vary from 24 h for yeasts (37° C.) to one week or more for dermatophytes (27° C.). Inhibition of fungal growth was measured after adding 10 μl of 0.005% (w/v) resazurin (Sigma Aldrich) to each well, based on the principle that living cells convert the non-fluorescent blue resazurin into the pink and fluorescent resorufin, allowing fluorimetric reading (λhd ex 550 nm and μem 590 nm) after an additional incubation period (‘resa’ time mentioned in Table 3a). [table]

[2] = system: Microsporum canis B68128; experiment: Antifungal activity in vitro (resazurin susceptibility screen), Inf. B; format: cell-based; settings: 27 °C, 9 days, resa time 24 hours; for IC50: Microsporum canis, B68128, Microsporum canis B68128; for pIC50 Inf. B: Microsporum canis B68128
Description: as §1

[3] = system: Aspergillus fumigatus B42928; experiment: Antifungal activity in vitro (resazurin susceptibility screen), Inf. E; format: cell-based; settings: 27 °C, 48 hours, resa time 17 hours; for IC50: Aspergillus fumigatus, B42928, Aspergillus fumigatus B42928; for pIC50 Inf. E: Aspergillus fumigatus B42928
Description: as §1

[4] = system: Cryptococcus neoformans B66663; experiment: Antifungal activity in vitro (resazurin susceptibility screen), Inf. F; format: cell-based; settings: 37 °C, 24 hours, resa time 4 hours; for IC50: Cryptococcus neoformans, B66663, Cryptococcus neoformans B66663; for pIC50 Inf. F: Cryptococcus neoformans B66663
Description: as §1

[5] = system: Rhizomucor miehei IHEM13391; experiment: Antifungal activity in vitro (resazurin susceptibility screen), Inf. K; format: cell-based; settings: 37 °C, 48 hours, resa time 17 hours; for IC50: Rhizomucor miehei, IHEM13391, Rhizomucor miehei IHEM13391
Description: as §1

[6] = system: Mucor circinelloides IHEM21105; experiment: Antifungal activity in vitro (resazurin susceptibility screen), Inf. L; format: cell-based; settings: 27 °C, 48 hours, resa time 17 hours
Description: as §1

[7] = system: Scedosporium apiospermum IHEM3817; experiment: Antifungal activity in vitro (resazurin susceptibility screen), Inf. H; format: cell-based; settings: 37 °C, 48 hours, resa time 17 hours; for IC50: Scedosporium apiospermum, IHEM3817, Scedosporium apiospermum IHEM3817
Description: as §1

[8] = system: Rhizopus oryzae IHEM5223; experiment: Antifungal activity in vitro (resazurin susceptibility screen), Inf. J; format: cell-based; settings: 37 °C, 24 hours, resa time 6 hours; for IC50: Rhizopus arrhizus
Description: as §1

[9] = system: Trichophyton mentagrophytes B70554; experiment: Antifungal activity in vitro (resazurin susceptibility screen), Inf. G; format: cell-based; settings: 27 °C, 7 days, resa time 24 hours; for IC50: Trichophyton mentagrophytes, B70554, Trichophyton mentagrophytes B70554; for pIC50 Inf. G: Trichophyton mentagrophytes B70554
Description: as §1

[10] = system: Trichophyton rubrum B68183; experiment: Antifungal activity in vitro (resazurin susceptibility screen), Inf. C; format: cell-based; settings: 27 °C, 7 days, resa time 24 hours; for IC50: Trichophyton rubrum, B68183, Trichophyton rubrum B68183; for pIC50 Inf. C: Trichophyton rubrum B68183
Description: as §1

[11] = system: Scedosporium prolificans IHEM21157; experiment: Antifungal activity in vitro (resazurin susceptibility screen), Inf. I; format: cell-based; settings: Lomentospora prolificans, 37 °C, 48 hours, resa time 17 hours
Description: as §1

[12] = system: Candida parapsilosis B66126; experiment: Antifungal activity in vitro (resazurin susceptibility screen), Inf. D; format: cell-based; settings: 37 °C, 24 hours, resa time 4 hours; for IC50: Lodderomyces parapsilosis, B66126, Candida parapsilosis B66126; for pIC50 Inf. D: Candida parapsilosis B66126
Description: as §1

[13] = system: Microsporum canis (strain B68128); experiment: Test D.4.1: activity against M. canis in guinea-pigs after oral treatment for 7 consecutive days; format: in vivo; design: key to semi-quantitative lesion score (mean): lesion score 0–3.5 by severity and size of lesion; settings: oral 10 mg/kg once daily for 7 days
Description: The animals used in the tests described below were female Guinea pigs (Duncan-Hartley, Charles River, 200 g). These animals were kept in groups of 2 or 3 in cages of 56×33×20 cm^3. Food pellets (Carfil Quality) and water were available ad libitum in addition to a small daily amount of hay. Standard husbandry conditions were adopted: room temperature: 22° C., humidity level: 60% and a day-night cycle of 12 h.
For the preparation of inoculums, Microsporum canis (strain B68128) was grown on Sabouraud Dextrose Agar (SDA) plates for at least one week (7-10 days) before infection (27° C.). On the day of infection, spores were harvested by adding 4-5 ml sterile water on the plate and suspending the infectious material with a bend Pasteur pipette. From the recollected fluid, 10 μl was added to a KOVA counting chamber for determination of the number of spores in 1 square (average of several squares). If needed, additional dilutions (10× or 100×) were prepared. The average number of spores in one square×dilution×90.000=cfu/ml. An inoculum of 1×10^7 cfu/ml was prepared in a honey-water mixture (50%-50%).
In the tests described below, semi-quantitative lesion scores were given based on different clinical parameters. Scores between 0 and 3.5 were assigned based on the severity and size of the lesion. The criteria are listed in detail in Table 6.
The dorsum of the guinea pigs was shaved and further depilated for 3 minutes with Veet® creme before scarification with a steel brush. An inoculum of 10^6 cfu in 150 μl (75 mQ+75 μl honey) was applied to the wound using a micropipette with disposable tips. The animal was kept immobilized until the inoculum had completely dried. […]
vehicle: methocel 0.5%, Tween 80® (polysorbate 80), demineralised water reference compound: itraconazole at 6.25 mg/ml test compounds: prepared at 25 mg/ml, subsequently further diluted
Oral treatment (gavage 0.16 ml/100 g once daily) was started about 2 hours before infection and continued once daily for 7 consecutive days. The animals were weighed after 3 days of treatment to adjust for the dose.
Developments of lesions were evaluated following the semi-quantitative lesion scoring system (see Table 6) on days 3, 5, 7, 10, 12, 14, 17 and 20. The results are show in Table 7 (“DPI” means days post infection). Reported values in Table 7 are mean values.

SMILES | IC50 [1] [nM] | IC50 [2] [nM] | IC50 [3] [nM] | IC50 [4] [nM] | IC50 [9] [nM] | IC50 [10] [nM] | IC50 [12] [nM] | pIC50 Inf. A [1] | pIC50 Inf. B [2] | pIC50 Inf. E [3] | pIC50 Inf. F [4] | pIC50 Inf. G [9] | pIC50 Inf. C [10] | pIC50 Inf. D [12] | other results
CC(F)(F)c1ccc(C2=NCc3c(Cl)cc(F)cc3-n3cccc32)cc1 [Compound 27, 7-chloro-4-[4-(1,1-difluoroethyl)phenyl]-9-fluoro-6H-pyrrolo[1,2-a][1,4]benzodiazepine] | 2450 | 513 | 501 | 1020 | 1510 | 288 | 1820 |  |  |  |  |  |  |  | IC50 [5]: 8320 nM; IC50 [6]: > 64600 nM; IC50 [7]: 437 nM; IC50 [8]: > 64600 nM; IC50 [11]: 100 nM
CC(F)(F)c1cc(C2=NCc3c(Cl)cccc3-n3cccc32)ccc1F [Compound 21, 7-chloro-4-[3-(1,1-difluoroethyl)-4-fluorophenyl]-6H-pyrrolo[1,2-a][1,4]benzodiazepine] | 3720 | 479 | 126 | 1580 | 692 | 195 | 2450 |  |  |  |  |  |  |  | IC50 [5]: 6610 nM; IC50 [6]: > 64600 nM; IC50 [7]: 89.1 nM; IC50 [8]: > 64600 nM; IC50 [11]: 50.1 nM
CC(F)(F)c1ccc(C2NCc3c(Cl)cc(Cl)cc3-n3cccc32)cc1.Cl (stereo not shown) [Compound 13, 7,9-dichloro-4-[4-(1,1-difluoroethyl)phenyl]-5,6-dihydro-4H-pyrrolo[1,2-a][1,4]-benzodiazepine.HCl] |  |  |  |  |  |  |  | <4.19 | 4.23 | 4.81 | <4.19 | 5.14 | 5.70 | <4.19 | 
CC(F)(F)c1ccc(C2NCc3cc(Cl)cc(Cl)c3-n3cccc32)cc1.Cl (stereo not shown) [Compound 5, 8,10-dichloro-4-[4-(1,1-difluoroethyl)phenyl]-5,6-dihydro-4H-pyrrolo[1,2-a][1,4]-benzodiazepine.HCl] |  |  |  |  |  |  |  | <4.19 | <4.19 | <4.19 | 4.46 | <4.19 | 4.22 | <4.19 | 
CC(F)(F)c1ccc([C@H]2NCc3c(Cl)cccc3-n3cccc32)cc1 (single isomer, unassigned) [Compound 3] |  |  |  |  |  |  |  |  |  |  |  |  |  |  | IC50 [8]: > 64600 nM; IC50 [11]: 708 nM
CC(F)(F)c1ccc(C2NCc3c(ccc(Cl)c3Cl)-n3cccc32)cc1.Cl (stereo not shown) [Compound 7, 7,8-dichloro-4-[4-(1,1-difluoroethyl)phenyl]-5,6-dihydro-4H-pyrrolo[1,2-a][1,4]-benzodiazepine.HCl] |  |  |  |  |  |  |  | <4.19 | 5.40 | <4.19 | <4.19 | <4.19 | 5.40 | <4.19 | 
CC(F)(F)c1cc(C2=NCc3ccc(Cl)cc3-n3cccc32)ccc1F [Compound 34, 9-chloro-4-[3-(1,1-difluoroethyl)-4-fluorophenyl]-6H-pyrrolo[1,2-a][1,4]benzodiazepine] | 7940 | 8130 | 7940 | 5750 | 8130 | 7940 | 2950 |  |  |  |  |  |  |  | 
CC(F)(F)c1ccc(C2NCc3c(Cl)ccc(Cl)c3-n3cccc32)cc1.Cl (stereo not shown) [Compound 11, 7,10-dichloro-4-[4-(1,1-difluoroethyl)phenyl]-5,6-dihydro-4H-pyrrolo[1,2-a][1,4]-benzodiazepine.HCl] |  |  |  |  |  |  |  | <4.19 | <4.19 | <4.19 | <4.19 | <4.19 | 4.86 | <4.19 | 
CC(F)(F)c1cc(C2=NCc3cccc(Cl)c3-n3cccc32)ccc1F [Compound 35, 10-chloro-4-[3-(1,1-difluoroethyl)-4-fluorophenyl]-6H-pyrrolo[1,2-a][1,4]-benzodiazepine] | 4270 | 525 | 1450 | 525 | 1580 | 302 | 14800 |  |  |  |  |  |  |  | 
CCC(C)n1ncn(-c2ccc(N3CCN(c4ccc(OCC5COC(Cn6cncn6)(c6ccc(Cl)cc6Cl)O5)cc4)CC3)cc2)c1=O (stereo not shown) [Itraconazole, reference compound] |  |  |  |  |  |  |  |  |  |  |  |  |  |  | semi-quantitative lesion score (mean) ([13]; 3 DPI): 0; semi-quantitative lesion score (mean) ([13]; 5 DPI): 0; semi-quantitative lesion score (mean) ([13]; 7 DPI): 0; semi-quantitative lesion score (mean) ([13]; 10 DPI): 0; semi-quantitative lesion score (mean) ([13]; 12 DPI): 0; semi-quantitative lesion score (mean) ([13]; 14 DPI): 0; semi-quantitative lesion score (mean) ([13]; 17 DPI): 0; semi-quantitative lesion score (mean) ([13]; 20 DPI): 0
CC(F)(F)c1ccc(C2NCc3c(Cl)cccc3-n3cccc32)cc1.Cl (stereo not shown) [Compound 1, 7-chloro-4-[4-(1,1-difluoroethyl)phenyl]-5,6-dihydro-4H-pyrrolo[1,2-a][1,4]-benzodiazepine.HCl] |  |  |  |  |  |  |  | 4.68 | 6.45 | 6.72 | 5.30 | 6.89 | 6.91 | 5.70 | pIC50 Inf. K ([5]; Rhizomucor miehei IHEM13391): <4.19; IC50 [6]: > 64600 nM; pIC50 Inf. H ([7]; Scedosporium apiospermum IHEM3817): <4.19; pIC50 Inf. J [8]: <4.19
CC(F)(F)c1ccc(C2=NCc3c(ccc(Cl)c3Cl)-n3cccc32)cc1 [Compound 10, 7,8-dichloro-4-[4-(1,1-difluoroethyl)phenyl]-6H-pyrrolo[1,2-a][1,4]benzodiazepine] | > 64600 | > 64600 | > 64600 | > 64600 | > 64600 | > 64600 | > 64600 |  |  |  |  |  |  |  | 
